How the values were obtained:
[1] = target: NAMPT (human, recombinant, C-terminally His-tagged) (Homo sapiens, UniProt P43490); assay: Time-Resolved Fluorescence Resonance Energy Transfer (TR-FRET) Binding Assay of NAMPT; settings: without substrates; 6.8 nM NAMPT, 200 nM probe, 3 hours equilibration
Method in brief: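 Read-out is the time-resolved FRET ratio Em520/Em495 (excitation 337 nm) between a terbium anti-His antibody (1 nM) on the enzyme and an Oregon Green 488-labelled nicotinamide-competitive inhibitor probe (200 nM). Enzyme was 6.8 nM, DMSO 2%, pH 7.5 HEPES buffer; 3 h room-temperature equilibration preceded reading.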

NAMPT = NAMPT (Homo sapiens, UniProt P43490); assay: TR-FRET Binding Assay of NAMPT with PRPP; settings: with 200 μM PRPP and 2.5 mM ATP; 2 nM NAMPT, 2 nM probe, 16 hours equilibration
Method in brief: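 NAMPT 2 nM + probe 2 nM + Tb-anti-His Ab 1 nM; PRPP 200 μM, ATP 2.5 mM, DMSO 2%; 16 h equilibration before TR-FRET read.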

PC3 cells = assay: NAMPT Cell Proliferation Assay; assay type: cell-based; settings: Homo sapiens, PC-3, 120 h, 5 days incubation, cell viability by Cell Titer Glo
Method in brief: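 IC50 values derive from sigmoidal dose-response fits of percent inhibition of PC3 viability, measured by luminescence after 5 days of compound treatment. Cells (500/well, RPMI containing 10% heat-inactivated FBS) are allowed to attach overnight, and compounds are tested at 10-fold dilutions between 10 μM and 1×10^−5 μM.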

NAMPT, sequence (P43490 whole entry): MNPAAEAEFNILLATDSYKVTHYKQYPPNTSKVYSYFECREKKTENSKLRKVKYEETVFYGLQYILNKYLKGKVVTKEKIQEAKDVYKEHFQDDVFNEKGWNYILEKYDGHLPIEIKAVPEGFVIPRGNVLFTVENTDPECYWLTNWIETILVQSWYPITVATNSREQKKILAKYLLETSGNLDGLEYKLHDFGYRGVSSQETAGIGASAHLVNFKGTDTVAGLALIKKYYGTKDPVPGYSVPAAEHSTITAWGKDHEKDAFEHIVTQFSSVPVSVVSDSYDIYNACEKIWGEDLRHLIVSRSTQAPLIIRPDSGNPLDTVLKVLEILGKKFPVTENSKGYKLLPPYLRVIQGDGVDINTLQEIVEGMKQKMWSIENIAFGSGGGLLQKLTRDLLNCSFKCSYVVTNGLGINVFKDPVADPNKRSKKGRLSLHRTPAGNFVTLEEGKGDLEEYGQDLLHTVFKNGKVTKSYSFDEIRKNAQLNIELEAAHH
NAMPT (human, recombinant, C-terminally His-tagged), sequence (P43490 whole entry): as above

Compound	IC50 [1]	IC50 (NAMPT)	IC50 (PC3 cells)
O=C(NCc1ccc2nccn2c1)c1ccc(-c2cnn(CC3CCOCC3)c2)s1 [Example 201, N-(imidazo[1,2-a]pyridin-6-ylmethyl)-5-[1-(tetrahydro-2H-pyran-4-ylmethyl)-1H-pyrazol-4-yl]thiophene-2-carboxamide]	46.6 nM	0.281 nM	1.89 nM
Cn1cc(CC(=O)N(C[C@H]2CCCO2)c2ncc(C(=O)NCc3ccn4ccnc4c3)s2)cn1 [Example 202, N-(imidazo[1,2-a]pyridin-7-ylmethyl)-2-{[(1-methyl-1H-pyrazol-4-yl)acetyl][(2R)-tetrahydrofuran-2-ylmethyl]amino}-1,3-thiazole-5-carboxamide]	216 nM	0.355 nM	4.88 nM
Cn1cccc1CCC(=O)N(C[C@H]1CCCO1)c1ncc(C(=O)NCc2ccn3ccnc3c2)s1 [Example 203, N-(imidazo[1,2-a]pyridin-7-ylmethyl)-2-{[3-(1-methyl-1H-pyrrol-2-yl)propanoyl][(2R)-tetrahydrofuran-2-ylmethyl]amino}-1,3-thiazole-5-carboxamide]	13.7 nM	0.21 nM	2.39 nM
CC(C)(O)Cn1cc(-c2ncc(C(=O)NCc3ccn4ccnc4c3)s2)cn1 [Example 204, 2-[1-(2-hydroxy-2-methylpropyl)-1H-pyrazol-4-yl]-N-(imidazo[1,2-a]pyridin-7-ylmethyl)-1,3-thiazole-5-carboxamide]	4830 nM	0.773 nM	1620 nM
CC(C)Cn1cc(-c2ncc(C(=O)NCc3ccn4ccnc4c3)s2)cn1 [Example 205, N-(imidazo[1,2-a]pyridin-7-ylmethyl)-2-[1-(2-methylpropyl)-1H-pyrazol-4-yl]-1,3-thiazole-5-carboxamide]	1060 nM	0.358 nM	483 nM
O=C(NCc1ccc2nccn2c1)c1ccc(-c2cnn(CC3CCCOC3)c2)s1 (stereo not drawn) [Example 206, N-(imidazo[1,2-a]pyridin-6-ylmethyl)-5-[1-(tetrahydro-2H-pyran-3-ylmethyl)-1H-pyrazol-4-yl]thiophene-2-carboxamide]	25.7 nM	0.263 nM	1.31 nM
CC(C)(C)OC(=O)Nc1ccc(C(=O)NCc2ccn3ccnc3c2)cc1 [Example 207, tert-butyl {4-[(imidazo[1,2-a]pyridin-7-ylmethyl)carbamoyl]phenyl}carbamate]	1510 nM	0.282 nM	739 nM
O=C(CC1CCOCC1)Nc1ccc(C(=O)NCc2ccn3ccnc3c2)cc1 [Example 208, N-(imidazo[1,2-a]pyridin-7-ylmethyl)-4-[(tetrahydro-2H-pyran-4-ylacetyl)amino]benzamide]	404 nM	0.169 nM	84.9 nM
O=C(CC1CCCO1)Nc1ccc(C(=O)NCc2ccn3ccnc3c2)cc1 (stereo not drawn) [Example 209, N-(imidazo[1,2-a]pyridin-7-ylmethyl)-4-[(tetrahydrofuran-2-ylacetyl)amino]benzamide]	811 nM	0.988 nM	693 nM
O=C(CCC1CCCO1)Nc1ccc(C(=O)NCc2ccn3ccnc3c2)cc1 (stereo not drawn) [Example 210, N-(imidazo[1,2-a]pyridin-7-ylmethyl)-4-{[3-(tetrahydrofuran-2-yl)propanoyl]amino}benzamide]	469 nM	0.363 nM	398 nM
CC(C)OCC(=O)Nc1ccc(C(=O)NCc2ccn3ccnc3c2)cc1 [Example 211, N-(imidazo[1,2-a]pyridin-7-ylmethyl)-4-{[(propan-2-yloxy)acetyl]amino}benzamide]	1660 nM	0.453 nM	950 nM
O=C(CCC1CCCC1)Nc1ccc(C(=O)NCc2ccn3ccnc3c2)cc1 [Example 212, 4-[(3-cyclopentylpropanoyl)amino]-N-(imidazo[1,2-a]pyridin-7-ylmethyl)benzamide]	44.8 nM	0.21 nM	34.1 nM
CC(C)CCC(=O)Nc1ccc(C(=O)NCc2ccn3ccnc3c2)cc1 [Example 213, N-(imidazo[1,2-a]pyridin-7-ylmethyl)-4-[(4-methylpentanoyl)amino]benzamide]	116 nM	0.271 nM	39.7 nM
O=C(CC1CCOC1)Nc1ccc(C(=O)NCc2ccn3ccnc3c2)cc1 (stereo not drawn) [Example 214, N-(imidazo[1,2-a]pyridin-7-ylmethyl)-4-[(tetrahydrofuran-3-ylacetyl)amino]benzamide]	641 nM	1.28 nM	289 nM
N#Cc1ccc(CN(C(=O)CC2CCCC2)c2ccc(C(=O)NCc3ccc4nccn4c3)cc2)cc1 [Example 215, 4-[(4-cyanobenzyl)(cyclopentylacetyl)amino]-N-(imidazo[1,2-a]pyridin-6-ylmethyl)benzamide]	2010 nM	3.04 nM	686 nM
CC(C)(C)OC(=O)N1CCC(c2ccc(NC(=O)NCc3ccn4ccnc4c3)cc2)CC1 [Example 216, tert-butyl 4-(4-{[(imidazo[1,2-a]pyridin-7-ylmethyl)carbamoyl]amino}phenyl)piperidine-1-carboxylate]	118 nM	0.19 nM	6.59 nM
CC(C)(C)OC(=O)N1CCC(c2ccc(C(=O)NCc3ccn4ccnc4c3)cc2)CC1 [Example 217, tert-butyl 4-{4-[(imidazo[1,2-a]pyridin-7-ylmethyl)carbamoyl]phenyl}piperidine-1-carboxylate]	220 nM	0.2 nM	3.42 nM
O=C(NCc1ccn2ccnc2c1)c1cnc(N2CC(COCc3ccccc3)OC2=O)s1 (stereo not drawn) [Example 218, 2-{5-[(benzyloxy)methyl]-2-oxo-1,3-oxazolidin-3-yl}-N-(imidazo[1,2-a]pyridin-7-ylmethyl)-1,3-thiazole-5-carboxamide]	123 nM	0.169 nM	71.1 nM
O=C(NCc1ccc2nccn2c1)c1ccc(-c2cnn(CC3CCCO3)c2)s1 (stereo not drawn) [Example 219, N-(imidazo[1,2-a]pyridin-6-ylmethyl)-5-[1-(tetrahydrofuran-2-ylmethyl)-1H-pyrazol-4-yl]thiophene-2-carboxamide]	79.4 nM	0.903 nM	5.59 nM
O=C(NCc1ccn2ccnc2c1)Nc1ccc(C2CCN(C(=O)C3CCCO3)CC2)cc1 (stereo not drawn) [Example 220, 1-(imidazo[1,2-a]pyridin-7-ylmethyl)-3-{4-[1-(tetrahydrofuran-2-ylcarbonyl)piperidin-4-yl]phenyl}urea]	74.2 nM	0.278 nM	5.73 nM
O=C(NCc1ccn2ccnc2c1)Nc1ccc(C2CCN(C(=O)C3CCOCC3)CC2)cc1 [Example 221, 1-(imidazo[1,2-a]pyridin-7-ylmethyl)-3-{4-[1-(tetrahydro-2H-pyran-4-ylcarbonyl)piperidin-4-yl]phenyl}urea]	120 nM	0.352 nM	7.82 nM
O=C(NCc1ccn2ccnc2c1)Nc1ccc(C2CCN(C(=O)C3COCCO3)CC2)cc1 (stereo not drawn) [Example 222, 1-{4-[1-(1,4-dioxan-2-ylcarbonyl)piperidin-4-yl]phenyl}-3-(imidazo[1,2-a]pyridin-7-ylmethyl)urea]	112 nM	0.192 nM	4.08 nM
O=C(NCc1ccn2ccnc2c1)Nc1ccc(C2CCN(C(=O)CC3CCOCC3)CC2)cc1 [Example 223, 1-(imidazo[1,2-a]pyridin-7-ylmethyl)-3-{4-[1-(tetrahydro-2H-pyran-4-ylacetyl)piperidin-4-yl]phenyl}urea]	109 nM	0.354 nM	7.08 nM
O=C(NCc1ccn2ccnc2c1)Nc1ccc(C2CCN(C(=O)CN3CCOCC3)CC2)cc1 [Example 224, 1-(imidazo[1,2-a]pyridin-7-ylmethyl)-3-{4-[1-(morpholin-4-ylacetyl)piperidin-4-yl]phenyl}urea]	233 nM	0.555 nM	23 nM
O=C(NCc1ccn2ccnc2c1)Nc1ccc(C2CCN(C(=O)CC3CCCO3)CC2)cc1 (stereo not drawn) [Example 225, 1-(imidazo[1,2-a]pyridin-7-ylmethyl)-3-{4-[1-(tetrahydrofuran-2-ylacetyl)piperidin-4-yl]phenyl}urea]	155 nM	0.673 nM	9.27 nM
CC(C)(O)CC(=O)N1CCC(c2ccc(NC(=O)NCc3ccn4ccnc4c3)cc2)CC1 [Example 226, 1-{4-[1-(3-hydroxy-3-methylbutanoyl)piperidin-4-yl]phenyl}-3-(imidazo[1,2-a]pyridin-7-ylmethyl)urea]	113 nM	0.608 nM	7.26 nM
CC(C)(O)C(=O)N1CCC(c2ccc(NC(=O)NCc3ccn4ccnc4c3)cc2)CC1 [Example 227, 1-{4-[1-(2-hydroxy-2-methylpropanoyl)piperidin-4-yl]phenyl}-3-(imidazo[1,2-a]pyridin-7-ylmethyl)urea]	16.2 nM	0.273 nM	6.28 nM
CC(C)C(=O)N1CCC(c2ccc(NC(=O)NCc3ccn4ccnc4c3)cc2)CC1 [Example 228, 1-(imidazo[1,2-a]pyridin-7-ylmethyl)-3-{4-[1-(2-methylpropanoyl)piperidin-4-yl]phenyl}urea]	49.4 nM	0.238 nM	8.56 nM

— patent US9187472B2 (AbbVie Inc., priority 2012, dated 2015)
